Test results taken from patent US9944611B2, “Polymerizable resins containing a 1,3,5-hexahydro-1,3,5-triazine moiety, methods of making, and dental compositions containing the same” (DENTSPLY SIRONA INC., priority 2013, dated 2018).

Experiment: Solubility of hydroxy-terminated TAT derivatives in water/EtOH (1:1)
Type: physicochemical
Description: A sample of each of the examples was then subjected to further characterization and testing, including by NMR, along with pure TAT. The results are summarized in Table 1, which illustrates, among other things, that the increased amounts of DEA improved the solubility: […]

Solubility in water/EtOH (1:1) @ 25% w/w: insoluble
SMILES: C=CC(=O)N1CN(C(=O)C=C)CN(C(=O)C=C)C1 [Parent Sample (TAT), 1,3,5-triacryloyl-hexahydro-1,3,5-triazine]
